Experimental data: publication PMC13350973, “Allosteric ensembles elucidate mechanisms of inhibition in the human soluble epoxide hydrolase” (Communications Biology, 2026)
Where a chain is given by its changes, count along the chain named. Values belong to the compound of their own block, whether it stands above or below them.

How the values were obtained:
[1] = target: T1, human soluble epoxide hydrolase (sEH) C-terminal domain, M3 mutant (Homo sapiens, UniProt P34913, R410A/C423S/S439A/R440A/K495A); experiment: UV spectra of washed covalent adduct of purified protein; fluorometric PHOME specific activity assay; type: binding
T1 construct: gene EPHX2; CTD, amino acids 230–555
T1 sequence (P34913 230-555 R410A/C423S/S439A/R440A/K495A): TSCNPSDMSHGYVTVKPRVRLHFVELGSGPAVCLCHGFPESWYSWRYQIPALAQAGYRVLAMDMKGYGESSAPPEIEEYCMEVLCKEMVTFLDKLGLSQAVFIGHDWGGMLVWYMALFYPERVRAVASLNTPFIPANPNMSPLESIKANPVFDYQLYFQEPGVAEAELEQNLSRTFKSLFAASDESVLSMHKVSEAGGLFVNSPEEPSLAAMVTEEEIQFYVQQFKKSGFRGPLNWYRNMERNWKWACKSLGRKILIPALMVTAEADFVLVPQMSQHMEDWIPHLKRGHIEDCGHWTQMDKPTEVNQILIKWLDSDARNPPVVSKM

[2] = target: T2, human soluble epoxide hydrolase (sEH) C-terminal domain (Homo sapiens, UniProt P34913); experiment: single injection method kinetic ITC (KM); type: biochemical
T2 construct: gene EPHX2; CTD, amino acids 230–555
T2 sequence (P34913 230-555): T1 sequence (P34913 230-555 R410A/C423S/S439A/R440A/K495A) with A181R, S194C, A210S, A211R, A266K

[3] = target: T3, human soluble epoxide hydrolase (sEH) C-terminal domain (Homo sapiens, UniProt P34913, C423S); experiment: single injection method kinetic ITC (KM); type: biochemical
T3 construct: gene EPHX2; CTD, amino acids 230–555
T3 sequence (P34913 230-555 C423S): T1 sequence (P34913 230-555 R410A/C423S/S439A/R440A/K495A) with A181R, A210S, A211R, A266K

[4] = target: T4, human soluble epoxide hydrolase (sEH) C-terminal domain (Homo sapiens, UniProt P34913, C522S); experiment: single injection method kinetic ITC (KM); type: biochemical
T4 construct: gene EPHX2; CTD, amino acids 230–555
T4 sequence (P34913 230-555 C522S): T1 sequence (P34913 230-555 R410A/C423S/S439A/R440A/K495A) with A181R, S194C, A210S, A211R, A266K, C293S

[5] = target: T2, human soluble epoxide hydrolase (sEH) C-terminal domain; experiment: spectrofluorometric hydrolysis assay with purified sEH CTD; type: biochemical

Structure (SMILES): CCCCC/C=C/C=C1/C(=O)C=C[C@@H]1C/C=C\CCCC(=O)O [15d-PGJ2]
UV spectra of washed covalent adduct of purified protein; fluorometric PHOME spe [1]: 8.2 fold reduction in enzymatic specific activity

Km [2]: 11.2 ± 0.46 µM | Km [3]: 14.6 ± 0.52 µM | Km [4]: 24 ± 2.58 µM
Structure (SMILES): CCCCCC1OC1C/C=C\C/C=C\C/C=C\CCCC(=O)O (centres unmarked) [14(15)-EET]

Structure (SMILES): COc1ccc2cc(C(C#N)OC(=O)CC3OC3c3ccccc3)ccc2c1 (centres unmarked) [PHOME, 3-phenyl-cyano(6-methoxy-2-naphthalenyl)methylester-2-oxiraneacetic acid]
spectrofluorometric hydrolysis assay with purified sEH CTD [5]: (PHOME), which upon sEH enzymatic hydrolysis releases the fluorescent product 6-methoxy-2-naphtaldeyde (6M2N)
